# Tests used:
# Glucocorticoid receptor [1] = biological target: T1, Glucocorticoid receptor (Rattus norvegicus, UniProt P06536); experiment: Transactivation activity at glucocorticoid receptor in rat H4II-E cells assessed as induction of tyrosine aminotransferase; type: ADME, cell-based
# T1 sequence (P06536 whole entry): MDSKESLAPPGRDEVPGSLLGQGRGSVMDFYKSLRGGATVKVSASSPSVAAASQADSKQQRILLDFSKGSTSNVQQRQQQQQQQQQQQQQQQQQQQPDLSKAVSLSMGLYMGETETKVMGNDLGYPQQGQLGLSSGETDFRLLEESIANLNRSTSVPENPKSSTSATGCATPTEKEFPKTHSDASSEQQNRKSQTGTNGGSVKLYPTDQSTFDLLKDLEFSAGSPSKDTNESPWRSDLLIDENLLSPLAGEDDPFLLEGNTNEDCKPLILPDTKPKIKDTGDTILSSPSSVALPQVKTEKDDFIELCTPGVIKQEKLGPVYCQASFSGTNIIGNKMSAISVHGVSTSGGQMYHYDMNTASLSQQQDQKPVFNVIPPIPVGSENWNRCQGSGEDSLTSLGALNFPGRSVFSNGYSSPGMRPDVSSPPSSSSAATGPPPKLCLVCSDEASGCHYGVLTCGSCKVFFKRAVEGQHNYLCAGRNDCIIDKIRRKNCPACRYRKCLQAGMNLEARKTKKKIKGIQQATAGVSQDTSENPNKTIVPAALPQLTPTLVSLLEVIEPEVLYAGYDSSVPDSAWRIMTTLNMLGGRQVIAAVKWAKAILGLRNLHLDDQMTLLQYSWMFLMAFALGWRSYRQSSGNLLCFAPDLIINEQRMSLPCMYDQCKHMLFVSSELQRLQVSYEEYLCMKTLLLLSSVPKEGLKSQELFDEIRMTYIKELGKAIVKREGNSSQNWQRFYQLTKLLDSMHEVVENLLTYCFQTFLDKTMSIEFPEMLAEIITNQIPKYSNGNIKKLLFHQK
# Glucocorticoid receptor [2] = biological target: T2, Glucocorticoid receptor (Homo sapiens, UniProt P04150); experiment: Transactivation activity at human glucocorticoid receptor in cells co-expressing GRE by luciferase reporter gene assay relative to control; conditions: read-out: Efficacy
# T2 sequence (P04150 whole entry): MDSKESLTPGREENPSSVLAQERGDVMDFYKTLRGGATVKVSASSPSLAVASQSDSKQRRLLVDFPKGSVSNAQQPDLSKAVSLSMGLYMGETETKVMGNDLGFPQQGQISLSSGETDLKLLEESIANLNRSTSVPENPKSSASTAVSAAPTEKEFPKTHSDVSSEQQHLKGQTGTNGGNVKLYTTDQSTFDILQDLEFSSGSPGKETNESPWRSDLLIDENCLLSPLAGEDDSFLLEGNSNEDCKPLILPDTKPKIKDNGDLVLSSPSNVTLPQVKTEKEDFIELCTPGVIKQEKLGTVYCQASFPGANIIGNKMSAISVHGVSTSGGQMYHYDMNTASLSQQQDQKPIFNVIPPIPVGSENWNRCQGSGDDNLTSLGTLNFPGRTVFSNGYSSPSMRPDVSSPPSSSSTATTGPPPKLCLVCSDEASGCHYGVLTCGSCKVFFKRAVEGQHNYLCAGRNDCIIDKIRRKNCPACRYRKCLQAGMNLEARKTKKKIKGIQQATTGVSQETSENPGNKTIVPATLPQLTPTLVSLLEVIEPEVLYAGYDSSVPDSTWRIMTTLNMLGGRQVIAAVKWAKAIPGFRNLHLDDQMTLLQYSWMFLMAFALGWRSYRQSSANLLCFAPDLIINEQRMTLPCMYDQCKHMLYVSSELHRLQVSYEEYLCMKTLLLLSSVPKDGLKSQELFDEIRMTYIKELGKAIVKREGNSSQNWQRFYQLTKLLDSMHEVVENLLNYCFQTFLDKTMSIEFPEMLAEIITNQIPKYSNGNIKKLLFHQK
# Glucocorticoid receptor [3] = biological target: T2, Glucocorticoid receptor; experiment: Transactivation activity at glucocorticoid receptor in human HepG2 cells assessed as induction of tyrosine aminotransferase; type: ADME, cell-based
# Glucocorticoid receptor [4] = biological target: T2, Glucocorticoid receptor; experiment: Transrepression activity at glucocorticoid receptor in human H292 cells assessed as inhibition of TNF-induced IL8 production; type: cell-based
# Glucocorticoid receptor [5] = biological target: T2, Glucocorticoid receptor; experiment: Transactivation activity at human glucocorticoid receptor in cells co-expressing GRE by luciferase reporter gene assay; conditions: read-out: IC50 (the source's name)
# [6] = AUC in po dosed rat; type: ADME, organism-based; conditions: plasma; note: test concentration or dose not given here
# [7] = Cmax in po dosed rat; type: ADME, organism-based; set-up: route oral; conditions: in vivo; note: test concentration or dose not given here
smiles,measurement,setting,value
C[C@]12Cc3cnn(-c4ccccc4)c3C=C1CC[C@@H]1[C@@H]2[C@@H](O)C[C@@]2(C)[C@H]1CC[C@]2(O)C(=O)CSc1nc2ccccc2s1,IC50,Glucocorticoid receptor [1],0.0573 µM
same,Emax,Glucocorticoid receptor [2],89%
same,IC50,Glucocorticoid receptor [3],0.165 µM
same,IC50,Glucocorticoid receptor [4],0.0075 µM
C[C@]12Cc3cnn(C4CCCCC4)c3C=C1CC[C@@H]1[C@@H]2[C@@H](O)C[C@@]2(C)[C@H]1CC[C@]2(O)C(=O)CSc1cnc2ccccc2n1,Emax,Glucocorticoid receptor [2],84%
same,IC50,Glucocorticoid receptor [4],0.0124 µM
Cc1cccc(SCC(=O)[C@@]2(O)CC[C@H]3[C@@H]4CCC5=CC(=O)CC[C@]5(C)[C@H]4[C@@H](O)C[C@@]32C)n1,Emax,Glucocorticoid receptor [2],18%
same,IC50,Glucocorticoid receptor [4],0.127 µM
C[C@]12CCC(=O)C=C1CC[C@@H]1[C@@H]2[C@@H](O)C[C@@]2(C)[C@H]1CC[C@]2(O)C(=O)CSc1nc2ncccc2o1,Emax,Glucocorticoid receptor [2],37%
same,IC50,Glucocorticoid receptor [4],0.0613 µM
C[C@]12Cc3cnn(C4CCOCC4)c3C=C1CC[C@@H]1[C@@H]2[C@@H](O)C[C@@]2(C)[C@H]1CC[C@]2(O)C(=O)CSc1nc2ccccc2s1,IC50,Glucocorticoid receptor [4],0.0864 µM
C[C@]12Cc3cnn(-c4ccc(F)cc4)c3C=C1CC[C@@H]1[C@@H]2[C@@H](O)C[C@@]2(C)[C@H]1CC[C@]2(O)C(=O)CSc1ncccn1,IC50,Glucocorticoid receptor [1],0.0143 µM
same,IC50,Glucocorticoid receptor [3],0.0377 µM
same,IC50,Glucocorticoid receptor [4],0.0006 µM
C[C@]12Cc3cnn(-c4ccc(F)cc4)c3C=C1CC[C@@H]1[C@@H]2[C@@H](O)C[C@@]2(C)[C@H]1CC[C@]2(O)C(=O)CSc1nccc2ccccc12,IC50,Glucocorticoid receptor [1],0.0654 µM
same,IC50,Glucocorticoid receptor [3],0.0373 µM
same,IC50,Glucocorticoid receptor [4],0.0016 µM
Cn1c(OCC(=O)[C@@]2(O)CC[C@H]3[C@@H]4CCC5=Cc6c(cnn6-c6ccc(F)cc6)C[C@]5(C)[C@H]4[C@@H](O)C[C@@]32C)nc2ccccc21,IC50,Glucocorticoid receptor [1],0.078 µM
same,IC50,Glucocorticoid receptor [4],0.0029 µM
C[C@]12Cc3cnn(C4CCCCC4)c3C=C1CC[C@@H]1[C@@H]2[C@@H](O)C[C@@]2(C)[C@H]1CC[C@]2(O)C(=O)CO,Emax,Glucocorticoid receptor [2],96%
same,EC50,Glucocorticoid receptor [5],0.00557 µM
same,IC50,Glucocorticoid receptor [4],0.00237 µM
Cn1c(SCC(=O)[C@@]2(O)CC[C@H]3[C@@H]4CCC5=Cc6c(cnn6C6CCCCC6)C[C@]5(C)[C@H]4[C@@H](O)C[C@@]32C)nc2ccccc21,IC50,Glucocorticoid receptor [1],1 µM
same,Emax,Glucocorticoid receptor [2],75%
same,IC50,Glucocorticoid receptor [4],0.0066 µM
C[C@]12Cc3cnn(C4CCCCC4)c3C=C1CC[C@@H]1[C@@H]2[C@@H](O)C[C@@]2(C)[C@H]1CC[C@]2(O)C(=O)CSc1nc2ccccc2s1,IC50,Glucocorticoid receptor [1],0.0547 µM
same,Emax,Glucocorticoid receptor [2],78%
same,IC50,Glucocorticoid receptor [3],0.4 µM
same,IC50,Glucocorticoid receptor [4],0.0071 µM
C[C@]12Cc3cnn(C4CCCCC4)c3C=C1CC[C@@H]1[C@@H]2[C@@H](O)C[C@@]2(C)[C@H]1CC[C@]2(O)C(=O)CSc1nc2ccccc2o1,IC50,Glucocorticoid receptor [1],0.0316 µM
same,Emax,Glucocorticoid receptor [2],72%
same,IC50,Glucocorticoid receptor [3],0.0821 µM
same,IC50,Glucocorticoid receptor [4],0.00312 µM
C[C@]12CCC(=O)C=C1CC[C@@H]1[C@@H]2[C@@H](O)C[C@@]2(C)[C@H]1CC[C@]2(O)C(=O)CSc1ccc(Cl)c(Cl)c1,Emax,Glucocorticoid receptor [2],28%
same,IC50,Glucocorticoid receptor [4],0.0272 µM
C[C@]12Cc3cnn(-c4ccc(F)cc4)c3C=C1CC[C@@H]1[C@@H]2[C@@H](O)C[C@@]2(C)[C@H]1CC[C@]2(O)C(=O)CSc1ccc2ccccc2n1,IC50,Glucocorticoid receptor [1],0.0243 µM
same,IC50,Glucocorticoid receptor [3],0.0183 µM
same,IC50,Glucocorticoid receptor [4],0.0053 µM
C[C@]12Cc3cnn(-c4ccccc4)c3C=C1CC[C@@H]1[C@@H]2[C@@H](O)C[C@@]2(C)[C@H]1CC[C@]2(O)C(=O)CO,IC50,Glucocorticoid receptor [1],0.00323 µM
same,AUC,[6],2.48 µg·h/mL
same,IC50,Glucocorticoid receptor [3],0.143 µM
same,IC50,Glucocorticoid receptor [4],0.00063 µM
same,Cmax,[7],0.628 µg/mL
C[C@]12Cc3cnn(-c4ccc(F)cc4)c3C=C1CC[C@@H]1[C@@H]2[C@@H](O)C[C@@]2(C)[C@H]1CC[C@]2(O)C(=O)CSc1ccc2ccccc2c1,IC50,Glucocorticoid receptor [1],0.0525 µM
same,IC50,Glucocorticoid receptor [3],0.0305 µM
same,IC50,Glucocorticoid receptor [4],0.00072 µM
C[C@]12Cc3cnn(-c4ccc(F)cc4)c3C=C1CC[C@@H]1[C@@H]2[C@@H](O)C[C@@]2(C)[C@H]1CC[C@]2(O)C(=O)CO,IC50,Glucocorticoid receptor [1],0.0032 µM
same,AUC,[6],1.04 µg·h/mL
same,IC50,Glucocorticoid receptor [3],0.0409 µM
same,IC50,Glucocorticoid receptor [4],0.0004 µM
same,Cmax,[7],0.24 µg/mL
C[C@]12Cc3cnn(-c4ccccn4)c3C=C1CC[C@@H]1[C@@H]2[C@@H](O)C[C@@]2(C)[C@H]1CC[C@]2(O)C(=O)CSc1nc2ccccc2s1,IC50,Glucocorticoid receptor [4],0.179 µM
Cn1c(SCC(=O)[C@@]2(O)CC[C@H]3[C@@H]4CCC5=Cc6c(cnn6-c6ccc(F)cc6)C[C@]5(C)[C@H]4[C@@H](O)C[C@@]32C)nc2ccccc21,IC50,Glucocorticoid receptor [1],0.174 µM
same,IC50,Glucocorticoid receptor [3],0.0887 µM
same,IC50,Glucocorticoid receptor [4],0.0011 µM
C[C@]12Cc3cnn(-c4ccc(F)cc4)c3C=C1CC[C@@H]1[C@@H]2[C@@H](O)C[C@@]2(C)[C@H]1CC[C@]2(O)C(=O)COc1cnc2ccccc2n1,IC50,Glucocorticoid receptor [3],0.0987 µM
same,IC50,Glucocorticoid receptor [4],0.00189 µM
C[C@]12Cc3cnn(-c4ccc(F)cc4)c3C=C1CC[C@@H]1[C@@H]2[C@@H](O)C[C@@]2(C)[C@H]1CC[C@]2(O)C(=O)COc1ccc2ccccc2n1,IC50,Glucocorticoid receptor [1],0.0447 µM
same,IC50,Glucocorticoid receptor [4],0.0018 µM
C[C@]12CCC(=O)C=C1CC[C@@H]1[C@@H]2[C@@H](O)C[C@@]2(C)[C@H]1CC[C@]2(O)C(=O)CSc1nc2ccccc2s1,Emax,Glucocorticoid receptor [2],30%
C[C@]12CCC(=O)C=C1CC[C@@H]1[C@@H]2[C@@H](O)C[C@@]2(C)[C@H]1CC[C@]2(O)C(=O)CSc1nnc(-c2ccccc2)o1,Emax,Glucocorticoid receptor [2],54%
same,IC50,Glucocorticoid receptor [4],0.0292 µM
C[C@]12Cc3cnn(-c4ccc(F)cc4)c3C=C1CC[C@@H]1[C@@H]2[C@@H](O)C[C@@]2(C)[C@H]1CC[C@]2(O)C(=O)CSc1nc2ccccc2c(=O)[nH]1,IC50,Glucocorticoid receptor [1],0.0865 µM
same,IC50,Glucocorticoid receptor [3],0.0935 µM
same,IC50,Glucocorticoid receptor [4],0.003 µM
C[C@]12Cc3cnn(C4CCCCC4)c3C=C1CC[C@@H]1[C@@H]2[C@@H](O)C[C@@]2(C)[C@H]1CC[C@]2(O)C(=O)CSc1ncccn1,Emax,Glucocorticoid receptor [2],76%
same,IC50,Glucocorticoid receptor [3],1 µM
same,EC50,Glucocorticoid receptor [5],0.137 µM
same,IC50,Glucocorticoid receptor [4],0.0073 µM
C[C@]12Cc3cnn(C4CCCCC4)c3C=C1CC[C@@H]1[C@@H]2[C@@H](O)C[C@@]2(C)[C@H]1CC[C@]2(O)C(=O)CSc1ccc2ccccc2n1,Emax,Glucocorticoid receptor [2],71%
same,IC50,Glucocorticoid receptor [4],0.0447 µM
C[C@]12Cc3cnn(C4CCCCC4)c3C=C1CC[C@@H]1[C@@H]2[C@@H](O)C[C@@]2(C)[C@H]1CC[C@]2(O)C(=O)CSc1ccccn1,Emax,Glucocorticoid receptor [2],87%
same,IC50,Glucocorticoid receptor [4],0.0044 µM
C[C@]12Cc3cnn(-c4ccc(F)cc4)c3C=C1CC[C@@H]1[C@@H]2[C@@H](O)C[C@@]2(C)[C@H]1CC[C@]2(O)C(=O)CSc1ccccn1,IC50,Glucocorticoid receptor [1],0.0045 µM
same,IC50,Glucocorticoid receptor [3],0.0047 µM
same,IC50,Glucocorticoid receptor [4],0.0005 µM
C[C@]12Cc3cnn(-c4ccc(F)cc4)c3C=C1CC[C@@H]1[C@@H]2[C@@H](O)C[C@@]2(C)[C@H]1CC[C@]2(O)C(=O)COc1ccc2ccccc2c1,IC50,Glucocorticoid receptor [1],0.058 µM
same,IC50,Glucocorticoid receptor [3],0.0292 µM
same,IC50,Glucocorticoid receptor [4],0.00106 µM
C[C@]12Cc3cnn(-c4ccccc4)c3C=C1CC[C@@H]1[C@@H]2[C@@H](O)C[C@@]2(C)[C@H]1CC[C@]2(O)C(=O)COc1cnc2ccccc2n1,Emax,Glucocorticoid receptor [2],56%
same,IC50,Glucocorticoid receptor [4],0.0037 µM
C[C@]12Cc3cnn(-c4ccc(F)cc4)c3C=C1CC[C@@H]1[C@@H]2[C@@H](O)C[C@@]2(C)[C@H]1CC[C@]2(O)C(=O)CSc1nc2ccccc2s1,IC50,Glucocorticoid receptor [1],0.0241 µM
same,IC50,Glucocorticoid receptor [3],0.101 µM
same,IC50,Glucocorticoid receptor [4],0.0017 µM
COc1ccc(-n2ncc3c2C=C2CC[C@@H]4[C@H]([C@@H](O)C[C@@]5(C)[C@H]4CC[C@]5(O)C(=O)CSc4nc5ccccc5s4)[C@@]2(C)C3)cc1,IC50,Glucocorticoid receptor [4],0.107 µM
C[C@]12Cc3cnn(-c4ccc(F)cc4)c3C=C1CC[C@@H]1[C@@H]2[C@@H](O)C[C@@]2(C)[C@H]1CC[C@]2(O)C(=O)COc1nc2ccccc2s1,IC50,Glucocorticoid receptor [1],0.084 µM
same,IC50,Glucocorticoid receptor [4],0.0021 µM
